Measurements as given in PubChem BioAssay AID588471 (The Scripps Research Institute Molecular Screening Center, 2011).

What was measured:
Test in all cases: PubChem AID 588471; call rule not given here
[1] = biological target: Protein-arginine deiminase type-4 (Homo sapiens) (UniProt Q9UM07); settings: recombinant PAD1-4, BAEE citrulline colorimetric absorbance; PAD4
[2] = biological target: Protein-arginine deiminase type-1 (Homo sapiens) (UniProt Q9ULC6); settings: recombinant PAD1-4, BAEE citrulline colorimetric absorbance; PAD1
[3] = biological target: Protein-arginine deiminase type-2 (Homo sapiens) (UniProt Q9Y2J8); settings: recombinant PAD1-4, BAEE citrulline colorimetric absorbance; PAD2
[4] = biological target: Protein-arginine deiminase type-3 (Homo sapiens) (UniProt Q9ULW8); settings: recombinant PAD1-4, BAEE citrulline colorimetric absorbance; PAD3

Measured: IC50

Sequence of Protein-arginine deiminase type-4 (Homo sapiens) (Q9UM07 whole entry, looked up): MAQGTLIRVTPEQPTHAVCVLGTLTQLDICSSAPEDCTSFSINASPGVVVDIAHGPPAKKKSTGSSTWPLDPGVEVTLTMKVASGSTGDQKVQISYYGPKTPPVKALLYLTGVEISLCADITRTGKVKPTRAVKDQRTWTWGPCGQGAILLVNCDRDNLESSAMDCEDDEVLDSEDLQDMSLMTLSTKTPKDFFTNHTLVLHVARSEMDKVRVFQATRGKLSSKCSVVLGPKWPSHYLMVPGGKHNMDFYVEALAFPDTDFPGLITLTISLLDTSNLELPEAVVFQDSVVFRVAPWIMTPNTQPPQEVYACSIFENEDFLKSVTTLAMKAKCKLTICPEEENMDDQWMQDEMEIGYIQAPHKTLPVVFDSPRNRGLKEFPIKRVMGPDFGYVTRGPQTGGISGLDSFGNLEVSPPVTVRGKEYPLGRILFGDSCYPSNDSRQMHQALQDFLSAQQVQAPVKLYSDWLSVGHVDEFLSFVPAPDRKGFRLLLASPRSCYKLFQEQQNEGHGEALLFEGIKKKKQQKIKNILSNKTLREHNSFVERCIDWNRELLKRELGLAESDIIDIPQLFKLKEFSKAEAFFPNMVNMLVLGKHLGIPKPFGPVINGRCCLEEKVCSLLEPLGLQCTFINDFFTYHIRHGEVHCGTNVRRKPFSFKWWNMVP
Sequence of Protein-arginine deiminase type-2 (Homo sapiens) (Q9Y2J8 whole entry, looked up): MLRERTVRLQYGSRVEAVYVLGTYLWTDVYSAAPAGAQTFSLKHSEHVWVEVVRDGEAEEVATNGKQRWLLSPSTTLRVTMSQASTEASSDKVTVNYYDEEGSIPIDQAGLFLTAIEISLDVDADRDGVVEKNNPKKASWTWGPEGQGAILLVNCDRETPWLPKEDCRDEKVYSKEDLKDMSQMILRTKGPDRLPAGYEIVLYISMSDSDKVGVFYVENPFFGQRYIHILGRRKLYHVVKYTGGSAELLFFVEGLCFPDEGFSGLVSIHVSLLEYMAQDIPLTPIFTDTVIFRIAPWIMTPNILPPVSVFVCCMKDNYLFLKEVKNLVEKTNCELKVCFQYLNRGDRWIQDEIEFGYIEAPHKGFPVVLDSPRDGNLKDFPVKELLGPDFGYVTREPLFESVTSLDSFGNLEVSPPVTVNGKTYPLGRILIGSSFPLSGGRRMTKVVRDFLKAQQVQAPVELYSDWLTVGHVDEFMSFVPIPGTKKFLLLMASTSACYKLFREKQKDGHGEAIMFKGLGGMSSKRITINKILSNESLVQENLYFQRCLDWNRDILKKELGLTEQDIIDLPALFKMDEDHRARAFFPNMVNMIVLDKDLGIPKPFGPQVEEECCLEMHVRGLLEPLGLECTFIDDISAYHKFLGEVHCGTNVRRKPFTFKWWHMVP
Sequence of Protein-arginine deiminase type-1 (Homo sapiens) (Q9ULC6 whole entry, looked up): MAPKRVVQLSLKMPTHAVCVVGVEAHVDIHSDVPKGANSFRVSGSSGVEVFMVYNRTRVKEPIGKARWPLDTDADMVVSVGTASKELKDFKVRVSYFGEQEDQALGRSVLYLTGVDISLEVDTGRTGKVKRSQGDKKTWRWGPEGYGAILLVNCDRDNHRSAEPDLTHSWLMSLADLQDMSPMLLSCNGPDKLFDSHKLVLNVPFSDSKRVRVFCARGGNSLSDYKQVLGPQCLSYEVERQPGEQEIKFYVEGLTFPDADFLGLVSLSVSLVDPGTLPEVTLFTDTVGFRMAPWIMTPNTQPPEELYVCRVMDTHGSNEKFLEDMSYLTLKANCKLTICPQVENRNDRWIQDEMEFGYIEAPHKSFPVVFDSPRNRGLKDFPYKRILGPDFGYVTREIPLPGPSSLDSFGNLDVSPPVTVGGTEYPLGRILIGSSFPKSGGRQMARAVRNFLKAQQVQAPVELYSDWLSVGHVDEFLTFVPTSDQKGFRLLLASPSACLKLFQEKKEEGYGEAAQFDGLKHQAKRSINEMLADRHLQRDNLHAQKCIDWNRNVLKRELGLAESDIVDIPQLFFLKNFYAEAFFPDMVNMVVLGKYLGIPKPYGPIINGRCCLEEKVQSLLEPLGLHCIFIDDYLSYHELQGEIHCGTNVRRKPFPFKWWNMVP
Sequence of Protein-arginine deiminase type-3 (Homo sapiens) (Q9ULW8 whole entry, looked up): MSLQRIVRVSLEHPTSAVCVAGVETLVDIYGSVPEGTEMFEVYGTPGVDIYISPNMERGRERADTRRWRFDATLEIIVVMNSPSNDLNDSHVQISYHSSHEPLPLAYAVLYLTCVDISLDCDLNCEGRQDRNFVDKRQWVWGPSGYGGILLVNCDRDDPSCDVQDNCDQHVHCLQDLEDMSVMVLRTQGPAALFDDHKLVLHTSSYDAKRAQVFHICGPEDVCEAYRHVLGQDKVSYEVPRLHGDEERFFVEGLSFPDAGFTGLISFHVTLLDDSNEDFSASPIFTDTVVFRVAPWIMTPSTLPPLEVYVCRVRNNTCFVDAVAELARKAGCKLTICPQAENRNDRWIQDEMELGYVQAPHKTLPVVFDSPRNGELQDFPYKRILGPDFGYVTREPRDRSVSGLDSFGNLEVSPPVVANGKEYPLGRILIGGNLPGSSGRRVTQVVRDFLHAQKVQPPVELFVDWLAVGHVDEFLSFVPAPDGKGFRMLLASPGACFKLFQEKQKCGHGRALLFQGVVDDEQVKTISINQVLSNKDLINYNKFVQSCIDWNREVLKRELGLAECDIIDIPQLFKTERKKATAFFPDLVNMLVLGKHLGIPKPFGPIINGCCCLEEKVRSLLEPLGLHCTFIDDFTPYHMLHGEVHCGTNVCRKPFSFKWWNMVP

NC1=CC(=O)c2ccc(-c3ccccn3)nc2C1=O
active: [1] 640 nM | [2] 950 nM | [3] 320 nM | [4] 130 nM
